Test results reported in ChEMBL document CHEMBL1201862, “PubChem BioAssay data set” (2004).
Activity calls are given as the source filed them.

How the values were obtained:
[1] = HGIII-sPLA2 enzyme inhibition potency – biochemical, QFRET, IC50, dose response (AID 743457);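 also: green fluorescence rise as the enzyme cleaves BODIPY PC-A2 in liposomes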
[2] = target: T1, Type-1 angiotensin II receptor (Homo sapiens, UniProt P30556); assay: antagonism of angiotensin II type 1 receptor – cell-based, uHTS hits, selectivity assay for APJ receptor antagonist project, dose response (AID 463214); format: functional;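 also: antagonist potency against angiotensin II stimulated AT1 response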
T1 sequence (P30556 whole entry): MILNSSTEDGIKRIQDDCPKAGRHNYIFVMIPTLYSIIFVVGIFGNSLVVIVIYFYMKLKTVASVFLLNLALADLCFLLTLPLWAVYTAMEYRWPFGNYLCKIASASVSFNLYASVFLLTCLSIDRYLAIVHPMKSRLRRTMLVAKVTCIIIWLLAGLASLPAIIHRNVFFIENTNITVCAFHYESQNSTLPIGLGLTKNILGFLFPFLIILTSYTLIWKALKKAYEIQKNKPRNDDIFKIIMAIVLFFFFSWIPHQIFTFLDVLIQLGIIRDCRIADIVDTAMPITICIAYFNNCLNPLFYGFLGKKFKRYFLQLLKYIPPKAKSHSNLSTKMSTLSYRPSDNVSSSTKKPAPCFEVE

Beta-galactosidase = Beta-galactosidase (Escherichia coli, UniProt Q8VNN2); assay: PubChem AID 485352; format: functional
[3] = target: T2, Polyadenylate-binding protein 1 (Homo sapiens, UniProt P11940); assay: MLLE domain peptide-binding blockers, IC50 – biochemical, fluorescence polarization, FITC-PAM2 peptide, dose response (AID 602259); format: functional; settings: read-out: IC50_Mean
[4] = target: T2, Polyadenylate-binding protein 1; assay: MLLE binding blockers, Cy5 peptide tracer – biochemical, fluorescence polarization, Cy5-PAM2 peptide, secondary, miRNA deadenylation inhibitor project, dose response (AID 602260); format: functional; settings: read-out: IC50_Mean
Protein Tat = target: T3, Protein Tat (Human immunodeficiency virus type 1 group M subtype B (isolate HXB2)(HIV-1), UniProt P04608); format: functional;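 also: tat binding to TAR RNA read out by fluorescence polarization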
T3 sequence (P04608 whole entry): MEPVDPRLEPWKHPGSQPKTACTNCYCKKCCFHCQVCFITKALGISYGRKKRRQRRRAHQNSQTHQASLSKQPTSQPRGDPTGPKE

[5] = target: T4, Neuropeptide Y receptor type 2 (Homo sapiens, UniProt P49146); format: functional, cell-based;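 also: HEK293 cells expressing the receptor and a CNG channel; stimulus was NPY near EC95 followed by isoproterenol to raise cAMP; antagonist potency measured as restoring cAMP signal that NPY suppresses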
T4 sequence (P49146 whole entry): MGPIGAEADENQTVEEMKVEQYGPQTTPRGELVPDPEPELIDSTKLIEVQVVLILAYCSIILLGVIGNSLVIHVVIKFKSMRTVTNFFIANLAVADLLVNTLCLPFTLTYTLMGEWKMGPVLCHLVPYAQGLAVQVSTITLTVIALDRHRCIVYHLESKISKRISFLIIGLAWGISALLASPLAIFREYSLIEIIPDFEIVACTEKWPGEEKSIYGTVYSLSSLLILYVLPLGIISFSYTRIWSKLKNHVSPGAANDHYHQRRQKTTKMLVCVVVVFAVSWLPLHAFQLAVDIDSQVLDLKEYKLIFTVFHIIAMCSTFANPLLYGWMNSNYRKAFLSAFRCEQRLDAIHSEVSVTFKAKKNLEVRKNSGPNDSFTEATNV

[6] = target: T5, Neuropeptide Y receptor type 1 (Homo sapiens, UniProt P25929); format: functional;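 also: HEK293 cells with a CNG channel challenged with NPY then isoproterenol; potency as antagonist that reverses NPY suppression of cAMP signal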
T5 sequence (P25929 whole entry): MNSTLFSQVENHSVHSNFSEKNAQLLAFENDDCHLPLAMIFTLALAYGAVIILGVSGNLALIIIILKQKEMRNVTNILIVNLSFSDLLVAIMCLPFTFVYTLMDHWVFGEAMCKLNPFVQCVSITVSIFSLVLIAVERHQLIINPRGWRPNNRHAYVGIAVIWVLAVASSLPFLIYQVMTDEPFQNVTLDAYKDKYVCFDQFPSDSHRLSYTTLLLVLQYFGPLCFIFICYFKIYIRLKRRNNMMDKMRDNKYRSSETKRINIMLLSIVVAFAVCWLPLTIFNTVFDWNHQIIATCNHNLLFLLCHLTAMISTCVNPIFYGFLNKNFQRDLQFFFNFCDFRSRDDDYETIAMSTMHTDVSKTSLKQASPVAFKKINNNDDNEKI

Estrogen receptor beta = Estrogen receptor beta (Homo sapiens, UniProt Q92731); assay: blockers of SRC-3 recruitment to ERβ – biochemical, ELISA, streptavidin-HRP readout, orthogonal assay, confirmation (AID 1060)
[7] = viability of uninfected HEp-2 cells – cell-based, HTS, cytotoxicity control for RSV inhibitor project, dose response (AID 2410); format: functional; settings: human respiratory syncytial virus
[8] = target: T6, Ubiquitin-conjugating enzyme E2 N (Homo sapiens, UniProt P61088); format: functional;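 also: Dose-response confirmation in a TR-FRET assay detecting UBC13-driven polyubiquitin chain formation, inhibition measured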
T6 sequence (P61088 whole entry): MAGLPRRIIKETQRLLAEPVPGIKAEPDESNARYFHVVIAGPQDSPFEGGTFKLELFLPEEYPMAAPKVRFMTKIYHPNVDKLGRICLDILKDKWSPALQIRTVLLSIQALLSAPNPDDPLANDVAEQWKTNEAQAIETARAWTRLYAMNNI

[9] = target: T7, Apoptotic protease-activating factor 1 (Homo sapiens, UniProt O14727); format: functional
T7 sequence (O14727 whole entry): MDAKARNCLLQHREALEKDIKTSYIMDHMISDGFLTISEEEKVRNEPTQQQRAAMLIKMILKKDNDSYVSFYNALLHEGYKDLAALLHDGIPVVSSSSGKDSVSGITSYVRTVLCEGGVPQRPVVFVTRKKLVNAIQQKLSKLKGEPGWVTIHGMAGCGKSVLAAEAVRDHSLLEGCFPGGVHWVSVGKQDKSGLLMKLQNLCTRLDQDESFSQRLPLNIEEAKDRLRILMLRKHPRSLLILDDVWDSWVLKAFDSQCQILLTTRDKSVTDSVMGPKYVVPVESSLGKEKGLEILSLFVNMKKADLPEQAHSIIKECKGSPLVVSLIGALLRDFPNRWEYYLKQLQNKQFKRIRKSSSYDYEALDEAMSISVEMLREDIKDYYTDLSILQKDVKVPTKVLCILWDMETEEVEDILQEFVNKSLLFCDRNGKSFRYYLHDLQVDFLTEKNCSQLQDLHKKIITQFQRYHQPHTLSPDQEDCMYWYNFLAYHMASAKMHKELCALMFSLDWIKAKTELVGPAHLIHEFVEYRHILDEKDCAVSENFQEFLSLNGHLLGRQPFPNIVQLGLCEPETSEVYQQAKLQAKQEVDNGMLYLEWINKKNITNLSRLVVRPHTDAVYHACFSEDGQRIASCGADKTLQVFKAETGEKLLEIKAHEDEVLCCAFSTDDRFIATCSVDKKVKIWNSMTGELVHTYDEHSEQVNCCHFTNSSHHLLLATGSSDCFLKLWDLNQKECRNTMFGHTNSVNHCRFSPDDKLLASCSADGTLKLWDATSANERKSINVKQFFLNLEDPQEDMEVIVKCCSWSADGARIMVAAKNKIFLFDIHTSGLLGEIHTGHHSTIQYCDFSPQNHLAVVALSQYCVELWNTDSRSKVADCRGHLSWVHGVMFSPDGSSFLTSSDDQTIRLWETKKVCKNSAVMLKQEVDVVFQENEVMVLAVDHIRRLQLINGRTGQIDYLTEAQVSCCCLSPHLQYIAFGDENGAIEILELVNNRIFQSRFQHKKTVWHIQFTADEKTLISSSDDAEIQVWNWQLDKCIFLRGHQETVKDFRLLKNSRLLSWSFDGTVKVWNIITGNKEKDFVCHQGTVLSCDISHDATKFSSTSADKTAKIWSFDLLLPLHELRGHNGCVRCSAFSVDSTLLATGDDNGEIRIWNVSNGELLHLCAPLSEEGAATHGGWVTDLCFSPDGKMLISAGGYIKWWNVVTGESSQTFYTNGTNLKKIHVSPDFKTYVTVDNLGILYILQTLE

[10] = fluconazole-exposed Candida albicans growth modulators – fluorescence, retest, confirmation (AID 2467); format: functional, cell-based
[11] = NIH-3T3 fibroblast cytotoxicity, dose response, cytotoxicity control, cell-based, fluorescence, Alamar Blue, secondary assay (AID 2327); format: functional;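 also: NIH-3T3 mouse fibroblasts cultured with fluconazole at 8 µg/mL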
[12] = OVCAR8 cell viability loss – plate reader, dry powder samples, PAX8 project, dose response (AID 743197); format: functional, cell-based; settings: OVCAR-8
Paired box protein Pax-8 = Paired box protein Pax-8 (Homo sapiens, UniProt Q06710); assay: PAX8 transcriptional activity inhibition in RMG-I – RMG-I cells, luciferase, cherry-pick, dose response (AID 687027); format: functional, cell-based;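 also: luciferase reporter driven by Pax8 target thyroperoxidase promoter measured by SteadyGlo luminescence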
[13] = SNU-C1 cell viability reduction, dose response, CellTiter-Glo luminescence (AID 1117323); format: functional, cell-based
[14] = CellTiter-Glo luminescence survival assay, SW480 colon tumor line, concentration-response curve, half-maximal inhibitory concentration (AID 1117338); format: functional
[15] = Reduced DLD-1 viability, concentration-response, CellTiter-Glo luminescence (AID 1117352); format: functional
[16] = cytotoxicity toward Colo320 cells – cell-based, CellTiter-Glo luminescence, IC50, dose response (AID 1117334); format: functional; settings: COLO 320
[17] = HCT116 cell viability decrease, GSK3B pretreatment – CellTiter-Glo, IC50, dose response (AID 1117339); format: functional; settings: HCT-116
[18] = RKO cell viability reduction, dose response, CellTiter-Glo luminescence (AID 1117322); format: functional
[19] = cytotoxicity toward HCT116 cells – cell-based, CellTiter-Glo luminescence, IC50, dose response (AID 1117332); format: functional; settings: HCT-116
[20] = cytotoxicity toward HT-29 cells – cell-based, CellTiter-Glo luminescence, IC50, dose response (AID 1117330); format: functional
[21] = rise of 2N DNA cells, HeLa – IC50, dose response (AID 1117349); format: functional, cell-based
[22] = rise of 4N DNA cells, HeLa – IC50, dose response (AID 1117351); format: functional, cell-based

T2 sequence (P11940 whole entry, the tested form may be a part): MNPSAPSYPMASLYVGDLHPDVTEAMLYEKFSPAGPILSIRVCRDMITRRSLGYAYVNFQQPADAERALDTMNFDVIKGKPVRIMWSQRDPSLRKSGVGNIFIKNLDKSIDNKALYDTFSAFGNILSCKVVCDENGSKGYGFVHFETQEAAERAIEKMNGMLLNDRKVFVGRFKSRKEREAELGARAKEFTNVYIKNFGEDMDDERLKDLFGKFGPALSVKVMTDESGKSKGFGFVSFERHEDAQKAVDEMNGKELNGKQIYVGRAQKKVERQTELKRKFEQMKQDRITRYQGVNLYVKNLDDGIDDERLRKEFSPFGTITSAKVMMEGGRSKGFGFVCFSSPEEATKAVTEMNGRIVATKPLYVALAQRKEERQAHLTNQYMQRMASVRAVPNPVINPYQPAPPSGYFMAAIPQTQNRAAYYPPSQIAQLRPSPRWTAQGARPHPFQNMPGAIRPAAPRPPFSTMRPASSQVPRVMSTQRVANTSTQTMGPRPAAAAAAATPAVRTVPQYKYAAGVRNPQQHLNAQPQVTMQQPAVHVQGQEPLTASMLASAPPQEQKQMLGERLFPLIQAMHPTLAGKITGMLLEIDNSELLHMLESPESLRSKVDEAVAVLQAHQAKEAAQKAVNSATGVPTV
Sequence of Paired box protein Pax-8 (Q06710 whole entry): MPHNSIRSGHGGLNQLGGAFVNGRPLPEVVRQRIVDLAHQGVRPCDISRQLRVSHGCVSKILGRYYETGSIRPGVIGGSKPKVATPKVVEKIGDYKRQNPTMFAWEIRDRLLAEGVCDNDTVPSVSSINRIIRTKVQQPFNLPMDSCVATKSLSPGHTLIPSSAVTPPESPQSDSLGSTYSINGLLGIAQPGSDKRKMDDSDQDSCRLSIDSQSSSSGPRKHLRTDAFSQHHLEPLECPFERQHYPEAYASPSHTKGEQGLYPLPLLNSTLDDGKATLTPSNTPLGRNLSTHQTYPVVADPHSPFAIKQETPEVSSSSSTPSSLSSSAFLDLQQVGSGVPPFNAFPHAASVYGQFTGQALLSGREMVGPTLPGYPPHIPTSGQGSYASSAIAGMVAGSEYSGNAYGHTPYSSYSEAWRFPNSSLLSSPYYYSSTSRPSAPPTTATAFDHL
Sequence of Beta-galactosidase (Q8VNN2 whole entry, the tested form may be a part): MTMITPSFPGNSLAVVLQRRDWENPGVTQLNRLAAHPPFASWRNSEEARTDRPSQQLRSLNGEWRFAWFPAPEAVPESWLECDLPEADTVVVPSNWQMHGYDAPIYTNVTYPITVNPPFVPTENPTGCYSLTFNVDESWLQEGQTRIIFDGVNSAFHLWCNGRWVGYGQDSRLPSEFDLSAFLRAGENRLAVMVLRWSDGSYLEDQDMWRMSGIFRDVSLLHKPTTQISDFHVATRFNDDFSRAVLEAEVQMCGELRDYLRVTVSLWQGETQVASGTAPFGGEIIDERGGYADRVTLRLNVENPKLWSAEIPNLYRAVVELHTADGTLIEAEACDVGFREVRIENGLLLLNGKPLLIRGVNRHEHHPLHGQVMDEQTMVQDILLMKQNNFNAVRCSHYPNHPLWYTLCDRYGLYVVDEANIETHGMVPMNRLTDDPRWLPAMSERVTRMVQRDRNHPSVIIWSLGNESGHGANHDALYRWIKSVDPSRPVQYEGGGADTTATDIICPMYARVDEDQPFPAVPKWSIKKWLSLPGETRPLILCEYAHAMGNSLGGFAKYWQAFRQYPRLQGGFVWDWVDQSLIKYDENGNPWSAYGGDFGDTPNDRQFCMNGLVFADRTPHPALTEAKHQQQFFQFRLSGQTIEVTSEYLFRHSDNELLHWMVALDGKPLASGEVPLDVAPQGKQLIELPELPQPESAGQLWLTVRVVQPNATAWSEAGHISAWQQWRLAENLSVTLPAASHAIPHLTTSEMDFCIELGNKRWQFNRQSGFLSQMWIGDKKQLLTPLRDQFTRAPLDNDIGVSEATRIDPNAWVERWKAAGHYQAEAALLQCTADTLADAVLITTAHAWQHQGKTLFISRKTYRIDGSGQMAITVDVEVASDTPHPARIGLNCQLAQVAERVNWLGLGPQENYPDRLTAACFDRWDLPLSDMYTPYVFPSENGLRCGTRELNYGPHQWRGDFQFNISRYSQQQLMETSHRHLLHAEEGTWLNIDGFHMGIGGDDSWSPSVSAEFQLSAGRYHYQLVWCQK
Sequence of Estrogen receptor beta (Q92731 whole entry): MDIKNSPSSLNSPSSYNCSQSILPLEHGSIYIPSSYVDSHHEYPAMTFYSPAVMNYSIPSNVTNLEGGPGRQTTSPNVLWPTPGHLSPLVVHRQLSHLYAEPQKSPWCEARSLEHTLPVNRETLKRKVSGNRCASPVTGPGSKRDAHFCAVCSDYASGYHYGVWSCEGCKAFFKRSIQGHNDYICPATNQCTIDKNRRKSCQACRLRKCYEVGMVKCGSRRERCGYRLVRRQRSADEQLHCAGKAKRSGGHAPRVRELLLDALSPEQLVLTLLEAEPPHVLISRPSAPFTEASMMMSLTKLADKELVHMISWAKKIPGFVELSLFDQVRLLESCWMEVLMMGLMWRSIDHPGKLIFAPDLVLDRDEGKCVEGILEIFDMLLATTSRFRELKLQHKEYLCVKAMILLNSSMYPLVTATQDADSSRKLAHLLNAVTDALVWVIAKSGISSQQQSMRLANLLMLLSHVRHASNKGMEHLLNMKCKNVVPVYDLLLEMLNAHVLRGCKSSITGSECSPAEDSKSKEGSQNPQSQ

SMILES: CCN=C(S)NNc1nnc(-c2ccccc2)c(-c2ccccc2)n1
- IC50 [1]: > 122 µM (inactive)
- IC50 [2]: > 40 µM (not active)
- EC50 (Beta-galactosidase): > 40 µM (inactive)

SMILES: C=CCn1c(SCC(=O)c2cc(C)n(C(C)COC)c2C)nc2sc(C)c(C)c2c1=O (centres undefined)
- IC50 [3]: > 66 µM (inactive)
- IC50 [4]: > 66 µM (inactive)
- IC50 (Protein Tat): > 100 µM (active)

SMILES: CCC(NCCC(c1ccccc1)c1ccccc1)=C1C(=O)N(C)C(=O)N(C)C1=O
- IC50 [5]: 5.26 µM (active)
- IC50 [6]: 5.26 µM (active)

SMILES: C=CCN1C(=O)NC(=O)/C(=C(/CC)NCCN2CCOCC2)C1=O
- IC50 (Protein Tat): > 100 µM (active)

SMILES: N#Cc1ccc(N2CCN(C(=O)CCCCCn3c(=S)[nH]c4ccccc4c3=O)CC2)cc1
- IC50 (Estrogen receptor beta): 10.5 µM (not active)

SMILES: Cc1ccc(NC(=O)CN(C)C(=O)c2ccc3[nH]c4c(c3c2)CC(C)CC4)cc1 (centres undefined)
- CC50 [7]: 28.2 µM (active)
- IC50 [8]: > 20 µM (inactive)
- IC50 (cells): 22.2 µM (active)
- IC50 [9]: > 100 µM (inactive)

SMILES: Cc1onc(-c2ccccc2Cl)c1C(=O)Nc1sc2c(c1C#N)CCC2
- EC50 [10]: 1.59 µM (active)
- IC50 [5]: 5.86 µM (active)
- IC50 [6]: 7.12 µM (active)
- EC50 [11]: > 160 µM (inactive)

SMILES: COc1ccc(-c2cc(C(=O)N3CCCCCC3)c3ccccc3n2)c(OC)c1
- CC50 [7]: 40.8 µM (active)
- IC50 (cells): 28 µM (active)

SMILES: Cc1cc(C(=O)NNC(S)=NC(C)c2ccccc2)c2ccccc2n1 (centres undefined)
- EC50 [10]: > 38 µM (not active)
- IC50 [1]: > 122 µM (inactive)
- EC50 [11]: > 150 µM (inactive)

SMILES: Cc1ccc(S(=O)(=O)C(c2ccccc2)c2c(C)noc2C)cc1 (centres undefined)
- IC50 [5]: 3.92 µM (active)
- IC50 [6]: > 35 µM (not active)

SMILES: C[C@@H]1CCCCO[C@@H](CN(C)C(=O)Nc2cccc3ccccc23)[C@H](C)CN([C@H](C)CO)C(=O)c2cc(NS(=O)(=O)c3ccccc3)ccc2O1
- AC50 [12]: > 70 µM (inactive)
- AC50 (Paired box protein Pax-8): 3.66 µM (active)

SMILES: CCOP(=S)(OCC)SCSc1ccc(Cl)cc1 [CARBOFENOTION]
- IC50 [13]: > 20 µM (inactive)
- IC50 [14]: > 20 µM (inactive)
- IC50 [15]: > 20 µM (inactive)
- IC50 [16]: > 20 µM (inactive)
- IC50 [17]: > 20 µM (inactive)
- IC50 [18]: > 20 µM (inactive)

SMILES: C=CCN1CC[C@]23CCCC[C@H]2[C@H]1Cc1ccc(O)cc13 [LEVALLORPHAN]
- IC50 [13]: > 20 µM (inactive)
- IC50 [14]: > 20 µM (inactive)
- IC50 [15]: > 20 µM (inactive)
- IC50 [19]: > 20 µM (inactive)
- IC50 [16]: > 20 µM (inactive)
- IC50 [20]: > 20 µM (inactive)
- IC50 [17]: > 20 µM (inactive)
- IC50 [18]: > 20 µM (inactive)

SMILES: COC(=O)Nc1nc2cc([S+]([O-])c3ccccc3)ccc2[nH]1 (centres undefined) [OXFENDAZOLE]
- IC50 [14]: > 20 µM (inactive)
- IC50 [15]: > 20 µM (inactive)
- IC50 [21]: 0.326 µM (active)
- IC50 [19]: 0.001 µM (active)
- IC50 [20]: > 20 µM (inactive)
- IC50 [17]: 0.001 µM (active)
- IC50 [18]: 0.001 µM (active)
- IC50 [22]: 0.331 µM (active)

SMILES: O=C(Nc1ccc(Br)cc1)c1cc(Br)cc(Br)c1O [TRIBROMSALAN]
- IC50 [13]: 0.001 µM (active)
- IC50 [14]: 0.001 µM (active)
- IC50 [15]: 0.001 µM (active)
- IC50 [21]: > 10 µM (inactive)
- IC50 [19]: 0.003 µM (active)
- IC50 [16]: 0.003 µM (active)
- IC50 [20]: 0.001 µM (active)
- IC50 [17]: 0.001 µM (active)
- IC50 [18]: 0.003 µM (active)
- IC50 [22]: > 10 µM (inactive)
